Measured values from the supplement of paper PMC6045584.
± gives the standard deviation of the averaged measurements.

How the values were obtained:
[1] = compound: CC(=O)c1c(C)c2cnc(Nc3ccc(N4CCNCC4)cn3)nc2n(C2CCCC2)c1=O; assay: surviving fraction relative to DMSO-only wells; higher = less growth inhibition; details: exposure time: 5 days
How it was run: (§1)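 Luminescence normalised to the median of DMSO-only wells defines surviving fraction, with viability read by CellTiter-Glo. Signal was recorded after 10 minutes at room temperature, once log-phase tumour cell lines seeded at 250–500 cells per well in 384-well plates had spent 24 hours settling and then five days under continuous exposure to inhibitors at 0.5, 1, 5, 10, 50, 100, 500 and 1000 nM.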

PACLITAXEL [2] = compound: T1, CC(=O)O[C@H]1C(=O)[C@@]2(C)[C@H]([C@H](OC(=O)c3ccccc3)[C@]3(O)C[C@H](OC(=O)[C@H](O)[C@@H](NC(=O)c4ccccc4)c4ccccc4)C(C)=C1C3(C)C)[C@]1(OC(C)=O)CO[C@@H]1C[C@@H]2O [PACLITAXEL]; assay: as above; details: exposure time: 5 days
How it was run: as §1

OSI-906 [3] = compound: T2, C[C@]1(O)C[C@@H](c2nc(-c3ccc4ccc(-c5ccccc5)nc4c3)c3c(N)nccn32)C1 [OSI-906]; assay: as above; details: exposure time: 5 days
How it was run: as §1

[4] = compound: CC(=O)NCC(=O)N1[C@@H]2CC[C@H]1c1ccc(Nc3ncc(C(F)(F)F)c(NC4CCC4)n3)cc12; assay: as above; details: exposure time: 5 days
How it was run: as §1

CAMPTOTHECIN [5] = compound: T3, CC[C@@]1(O)C(=O)OCc2c1cc1n(c2=O)Cc2cc3ccccc3nc2-1 [CAMPTOTHECIN]; assay: as above; details: exposure time: 5 days
How it was run: as §1

CELECOXIB [6] = compound: T4, Cc1ccc(-c2cc(C(F)(F)F)nn2-c2ccc(S(N)(=O)=O)cc2)cc1 [CELECOXIB]; assay: as above; details: exposure time: 5 days
How it was run: as §1

CARBOPLATIN [7] = compound: T5, O=C(O)C1(C(=O)O)CCC1.[NH2-].[NH2-].[Pt+2] [CARBOPLATIN]; assay: as above; details: exposure time: 5 days
How it was run: as §1

YM155 [8] = compound: T6, COCC[n+]1c2c(n(Cc3cnccn3)c1C)C(=O)c1ccccc1C2=O [YM155]; assay: as above; details: exposure time: 5 days
How it was run: as §1

GEFITINIB [9] = compound: T7, COc1cc2ncnc(Nc3ccc(F)c(Cl)c3)c2cc1OCCCN1CCOCC1 [GEFITINIB]; assay: as above; details: exposure time: 5 days
How it was run: as §1

[10] = compound: CC(=O)c1c(C)c2cnc(Nc3ccc(N4CCNCC4)cn3)nc2n(C2CCCC2)c1=O; assay: area under dose-response curve of surviving fraction (unscaled, Aref=0) (surviving fraction x log10(nM)); higher = more resistant; details: exposure time: 5 days; dose range 0.5-1000 nM
How it was run: (§2)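 Tumour cell lines in 384-well plates were exposed for five days to eight inhibitor concentrations from 0.5 to 1000 nM. Viability was read by CellTiter-Glo luminescence, normalised to DMSO-only wells, in three screens per line. Dose-response survival curves were fitted to surviving fractions by 3-parameter logistic regression in the drc R package. Area under the curve is the unscaled activity area (Aref = 0) over log10 dose.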

PACLITAXEL [11] = compound: T1, PACLITAXEL; assay: as above; details: exposure time: 5 days; dose range 0.5-1000 nM
How it was run: as §2

OSI-906 [12] = compound: T2, OSI-906; assay: as above; details: exposure time: 5 days; dose range 0.5-1000 nM
How it was run: as §2

[13] = compound: CC(=O)NCC(=O)N1[C@@H]2CC[C@H]1c1ccc(Nc3ncc(C(F)(F)F)c(NC4CCC4)n3)cc12; assay: as above; details: exposure time: 5 days; dose range 0.5-1000 nM
How it was run: as §2

CAMPTOTHECIN [14] = compound: T3, CAMPTOTHECIN; assay: as above; details: exposure time: 5 days; dose range 0.5-1000 nM
How it was run: as §2

CELECOXIB [15] = compound: T4, CELECOXIB; assay: as above; details: exposure time: 5 days; dose range 0.5-1000 nM
How it was run: as §2

CARBOPLATIN [16] = compound: T5, CARBOPLATIN; assay: as above; details: exposure time: 5 days; dose range 0.5-1000 nM
How it was run: as §2

YM155 [17] = compound: T6, YM155; assay: as above; details: exposure time: 5 days; dose range 0.5-1000 nM
How it was run: as §2

GEFITINIB [18] = compound: T7, GEFITINIB; assay: as above; details: exposure time: 5 days; dose range 0.5-1000 nM
How it was run: as §2

**Q.** What does the source list for HCC1954 BREAST?
**A.** surviving fraction ([1]; 0.5 nM): 0.996 ± 0.22; surviving fraction ([1]; 1 nM): 0.907 ± 0.29; surviving fraction ([1]; 5 nM): 1.07 ± 0.21; surviving fraction ([1]; 10 nM): 0.901 ± 0.4; surviving fraction ([1]; 50 nM): 1.39 ± 0.17; surviving fraction ([1]; 100 nM): 1.05 ± 0.056; surviving fraction ([1]; 500 nM): 1.29 ± 0.054; surviving fraction ([1]; 1000 nM): 1.36 ± 0.092; surviving fraction (PACLITAXEL [2]; 0.5 nM): 0.6985 ± 0.00071; surviving fraction (PACLITAXEL [2]; 1 nM): 0.569 ± 0.0021; surviving fraction (PACLITAXEL [2]; 5 nM): 0.199 ± 0.0014; surviving fraction (PACLITAXEL [2]; 10 nM): 0.094 ± 0.0057; surviving fraction (PACLITAXEL [2]; 50 nM): 0.0897 ± 0.0025; surviving fraction (PACLITAXEL [2]; 100 nM): 0.071 ± 0.0028; surviving fraction (PACLITAXEL [2]; 500 nM): 0.0592 ± 0.012; surviving fraction (PACLITAXEL [2]; 1000 nM): 0.0653 ± 0.015; surviving fraction (OSI-906 [3]; 0.5 nM): 0.33 ± 0.0085; surviving fraction (OSI-906 [3]; 1 nM): 0.37 ± 0.012; surviving fraction (OSI-906 [3]; 5 nM): 0.384 ± 0.046; surviving fraction (OSI-906 [3]; 10 nM): 0.475 ± 0.025; surviving fraction (OSI-906 [3]; 50 nM): 0.457 ± 0.063; surviving fraction (OSI-906 [3]; 100 nM): 0.384 ± 0.012; surviving fraction (OSI-906 [3]; 500 nM): 0.314 ± 0.04; surviving fraction (OSI-906 [3]; 1000 nM): 0.35 ± 0.023; surviving fraction ([4]; 0.5 nM): 0.891 ± 0.079; surviving fraction ([4]; 1 nM): 0.784 ± 0.085; surviving fraction ([4]; 5 nM): 1.17 ± 0.054; surviving fraction ([4]; 10 nM): 0.986 ± 0.042; surviving fraction ([4]; 50 nM): 0.828 ± 0.022; surviving fraction ([4]; 100 nM): 0.745 ± 0.14; surviving fraction ([4]; 500 nM): 1.07 ± 0.021; surviving fraction ([4]; 1000 nM): 0.905 ± 0.11; surviving fraction (CAMPTOTHECIN [5]; 0.5 nM): 0.381 ± 0.037; surviving fraction (CAMPTOTHECIN [5]; 1 nM): 0.362 ± 0.0088; surviving fraction (CAMPTOTHECIN [5]; 5 nM): 0.484 ± 0.033; surviving fraction (CAMPTOTHECIN [5]; 10 nM): 0.517 ± 0.037; surviving fraction (CAMPTOTHECIN [5]; 50 nM): 0.245 ± 0.046; surviving fraction (CAMPTOTHECIN [5]; 100 nM): 0.172 ± 0.011; surviving fraction (CAMPTOTHECIN [5]; 500 nM): 0.0478 ± 0.0088; surviving fraction (CAMPTOTHECIN [5]; 1000 nM): 0.0365 ± 0.0021; surviving fraction (CELECOXIB [6]; 0.5 nM): 1.05 ± 0.12; surviving fraction (CELECOXIB [6]; 1 nM): 1.07 ± 0.076; surviving fraction (CELECOXIB [6]; 5 nM): 1.39 ± 0.077; surviving fraction (CELECOXIB [6]; 10 nM): 1.27 ± 0.065; surviving fraction (CELECOXIB [6]; 50 nM): 1.11 ± 0.033; surviving fraction (CELECOXIB [6]; 100 nM): 0.959 ± 0.038; surviving fraction (CELECOXIB [6]; 500 nM): 1.08 ± 0.024; surviving fraction (CELECOXIB [6]; 1000 nM): 0.859 ± 0.088; surviving fraction (CARBOPLATIN [7]; 0.5 nM): 1.36 ± 0.11; surviving fraction (CARBOPLATIN [7]; 1 nM): 1.02 ± 0.072; surviving fraction (CARBOPLATIN [7]; 5 nM): 1.4 ± 0.31; surviving fraction (CARBOPLATIN [7]; 10 nM): 1.52 ± 0.31; surviving fraction (CARBOPLATIN [7]; 50 nM): 1.05 ± 0.15; surviving fraction (CARBOPLATIN [7]; 100 nM): 0.954 ± 0.013; surviving fraction (CARBOPLATIN [7]; 500 nM): 1.07 ± 0.062; surviving fraction (CARBOPLATIN [7]; 1000 nM): 0.836 ± 0.12; surviving fraction (YM155 [8]; 0.5 nM): 1.08 ± 0.077; surviving fraction (YM155 [8]; 1 nM): 0.922 ± 0.12; surviving fraction (YM155 [8]; 5 nM): 0.987 ± 0.051; surviving fraction (YM155 [8]; 10 nM): 0.467 ± 0.079; surviving fraction (YM155 [8]; 50 nM): 0.0892 ± 0.02; surviving fraction (YM155 [8]; 100 nM): 0.035 ± 0.0064; surviving fraction (YM155 [8]; 500 nM): 0.0335 ± 0.00071; surviving fraction (YM155 [8]; 1000 nM): 0.0333 ± 0.0053; surviving fraction (GEFITINIB [9]; 0.5 nM): 1.25 ± 0.17; surviving fraction (GEFITINIB [9]; 1 nM): 1.25 ± 0.25; surviving fraction (GEFITINIB [9]; 5 nM): 1.01 ± 0.029; surviving fraction (GEFITINIB [9]; 10 nM): 1.2 ± 0.13; surviving fraction (GEFITINIB [9]; 50 nM): 0.855 ± 0.011; surviving fraction (GEFITINIB [9]; 100 nM): 0.702 ± 0.0081; surviving fraction (GEFITINIB [9]; 500 nM): 0.459 ± 0.064; surviving fraction (GEFITINIB [9]; 1000 nM): 0.408 ± 0.016; area under dose-response curve [10]: 3.1; area under dose-response curve (PACLITAXEL [11]): 0.63; area under dose-response curve (OSI-906 [12]): 1.26; area under dose-response curve [13]: 3.09; area under dose-response curve (CAMPTOTHECIN [14]): 0.947; area under dose-response curve (CELECOXIB [15]): 3.51; area under dose-response curve (CARBOPLATIN [16]): 3.62; area under dose-response curve (YM155 [17]): 1.4; area under dose-response curve (GEFITINIB [18]): 2.73
